Experimental data: patent publication US11458175B2, “Composition comprising Lactobacillus plantarum CJLP475 strain and Lactobacillus plantarum CJLP243 strain and use thereof” (CJ CHEILJEDANG CORPORATION, priority 2018, dated 2022)

Experiments:
sows = test: Effect on immunity and colostrum of sows (IgA and IgG ELISA); type: in vivo; details: vs control; for total IgA content in the serum of sows / total IgG content in the serum of sows: sows fed 10^10 to 10^11 CFU per day for 4 weeks
Procedure: An experiment was carried out in order to confirm the effect of the composition including the Lactobacillus plantarum CJLP475 strain and the Lactobacillus plantarum CJLP243 strain on the immunity and colostrum of sows when the composition was given to the sows, as follows: fifteen sows at 6 weeks before delivery in the same delivery period were selected randomly for each experimental group from the farms in which no PED virus had occurred. All of the sows used in the experiment were inoculated with the PED virus vaccine at 5 weeks and 2 weeks before delivery. The experiment was carried out in a total of four experimental groups, i.e., a control group in which no strain was fed, a group fed with CJLP475 alone, a group fed with CJLP243 alone, and a group fed with the composition including CJLP475 strain and CJLP243 strain. The feed was given in the form of common feeds without antibiotics, and water was given to be consumed freely. The Lactobacillus plantarum CJLP475 strain, the Lactobacillus plantarum CJLP243 strain, and the composition were produced in the form of freeze-dried powder and stored in a refrigerator, and then added on top of the feed when given to the sows so that each sow was given the feed in an amount of 10^10 to 10^11 CFU per day according to the treatment conditions. The sows were fed for a total of 4 weeks, and then the serum and colostrum of the sows were examined using an IgA and IgG ELISA kit.

[1] = Antibiotic susceptibility test with antibiotic discs; details: for resistance to antibiotics: ampicillin, clindamycin, gentamicin, kanamycin, erythromycin, ampicillin/sulbactam, chloramphenicol, streptomycin discs
Procedure: The Lactobacillus plantarum CJLP475 strain and the Lactobacillus plantarum CJLP243 strain were independently inoculated into a liquid MRS medium and subjected to a static culture at 37° C. for 24 hours. The thus-cultured bacteria were soaked in sterilized cotton swabs and smeared on a Mueller Hinton II solid medium (Difco), and then antibiotic discs were placed on the medium and incubated at 37° C. for 24 hours. Ampicillin, clindamycin, gentamicin, kanamycin, erythromycin, ampicillin/sulbactam, chloramphenicol, and streptomycin discs (Oxoid, UK) were used as antibiotic discs for the antibiotic test.

[2] = system: porcine epidemic diarrhea virus (PEDV, SM98 or KPEDV9 strain); test: Inhibitory effect against viral infection, PBMC culture broth on IPEC-J2 cells; type: cell-based; details: PBMC culture broth on IPEC-J2, PED virus 100 TCID50/mL, 48 hours
Procedure: In order to measure the inhibitory effect of the composition including the Lactobacillus plantarum CJLP475 strain and the Lactobacillus plantarum CJLP243 strain against viral infection, porcine epidemic diarrhea virus (PEDV, SM98 or KPEDV9 strain) was prepared. Specifically, the virus was proliferated in Vero cells (CCL-81, kidney epithelial cells extracted from Chlorocebus), and MEM (Eagle's Minimum Essential Medium, Gibco BRL, USA), heat-inactivated 10% FBS (fetal bovine serum, v/v) and 1% (v/v) penicillin/streptomycin were as the media for culturing Vero cells. The Vero cells were incubated as a monolayer, washed twice with the media, and then all the solutions were removed. The virus was mixed at 0.1 MOI (multiplicity of infection) level in FBS-free MEM containing trypsin treated with 5 μg/ml TPCK (N-tosyl-L-phenylalanine chloromethyl ketone), treated with a minimal volume of the prepared culture cells, and then incubated in a 37° C. cell incubator containing 5% CO2 for 2 to 3 days.
The viral infection was determined by the formation of virus syncytia. […] Subsequently, the cells were added with a culture broth, in which the virus was subjected to a 2-fold serial dilution, and incubated for 24 to 48 hours to confirm viral infection, and the virus titer was calculated by the Reed & Muench method. […]

[3] = Bile-resistance assessment in artificial bile medium (viable cell count); type: physicochemical; details: artificial bile medium (MRS with 0.5% oxgall), 37° C.
Procedure: An artificial bile medium was prepared for the assessment of bile-resistance. More specifically, the artificial bile medium was prepared by adding 0.5% oxgall (bull bile) to a liquid MRS medium, followed by sterilization.
(§1) The strains of Example 1 were subjected to a static culture in a liquid MRS medium at 37° C. for 18 hours after the second subculture. 1% of the pre-incubated strains were inoculated to the artificial bile medium and subjected to a static culture at 37° C., and the culture broth was sampled at 0 hour and 24 hours. The sampled culture broth was serial diluted and smeared on the solid MRS medium, and incubated at 37° C. for 48 hours to measure viable cell count.
(§2) In order to compare the acid-resistance and bile-resistance of the Lactobacillus plantarum CJLP475 strain and the Lactobacillus plantarum CJLP243 strain with those of the conventionally known strains, the acid-resistance and the bile-resistance of the Lactobacillus plantarum standard strain (KCCM12116) obtained from the Korean Culture Center of Microorganisms were assessed in the same manner as the above method.

PED virus KPEDV9 = test: Inhibition of PED virus infection by immune cells of weaned piglets fed with the strains; type: in vivo; parameters: key: ++: Complete Inhibition; +: Partial Inhibition; −: Infected; details: piglets fed 10^10 CFU per day for 3 weeks; for Inhibitory Effect against PED virus infection, mLN, KPEDV9: immune cells of mesenteric lymph nodes; for Inhibitory Effect against PED virus infection, Spin, KPEDV9: immune cells of spleen
Procedure: (§3) In order to confirm the effect of the composition including the Lactobacillus plantarum CJLP243 strain and the Lactobacillus plantarum CJLP475 strain on the immunity upon feeding, an experiment was carried out as follows:
(§4) Thirty-two 21-day-old weaned piglets were purchased and raised in a container farm for 3 weeks. The feed was given in the form of common crumble feeds without antibiotics. The composition including the Lactobacillus plantarum CJLP475 strain and the Lactobacillus plantarum CJLP243 strain was produced in the form of freeze-dried powder and stored in a refrigerator, and each piglet was given the feed in an amount of 10^10 CFU per day. After 3 weeks of oral administration, four piglets per treatment group were autopsied to collect blood and tissue samples so as to determine the effect of the composition on the immunity of the piglets.
(§5) In order to obtain immune cells from the spleen (Spin) and the mesenteric lymph nodes (mLN), the chopped tissue was powdered using a plunger of a syringe and a 70-micrometer cell strainer (BD Falcon), and then the cells were washed using an RPMI-1640 medium (Roswell Park Memorial Institute-1640, Gibco BRL, Grand Island, N.Y., USA). The remaining RBCs (red blood cells) were removed using an RBC lysis buffer (eBioscience, USA) prior to the last washing step. The immune cells collected after the last washing step were stained with Trypan blue and counted with a hemocytometer to be used.
(§6) For evaluation of the inhibitory effect against viral infection, PED virus was incubated in the same manner as in Example 6 described above, and the content thereof was measured. The immune cells obtained from the weaned piglets without feeding of the composition were used as a negative control.

PED virus SM98 = test: as above; type: in vivo; parameters: key: ++: Complete Inhibition; +: Partial Inhibition; −: Infected; details: piglets fed 10^10 CFU per day for 3 weeks; for Inhibitory Effect against PED virus infection, mLN, SM98: immune cells of mesenteric lymph nodes; for Inhibitory Effect against PED virus infection, Spin, SM98: immune cells of spleen
Procedure: as §3, §4, §5, §6

[4] = Acid-resistance assessment in artificial gastric juice medium (viable cell count); type: physicochemical; details: artificial gastric juice medium (MRS with pepsin, pH 2.5), 37° C.
Procedure: An artificial gastric juice medium was prepared for the assessment of acid-resistance. More specifically, the artificial gastric juice medium was prepared by adding pepsin to a liquid MRS medium so as to adjust the pH to 2.5, followed by sterilization.
as §1, with “gastric juice” for “bile”, “3” for “24”
as §2

[5] = system: red blood cells (sheep blood 5% agar); test: Hemolytic activity on blood agar plates; type: cell-based; details: 37° C., 24 hours
Procedure: […]-Hemolysis is a phenomenon in which phospholipids supplied by red blood cells are hydrolyzed by phospholipid enzymes produced from harmful bacteria, resulting in hemolysis of red blood cells. In order to determine the hemolytic activity of the Lactobacillus plantarum CJLP475 strain and the Lactobacillus plantarum CJLP243 strain, blood agar plates (sheep blood 5% agar, Hanilkomed, Korea) were used. The strains were streaked into the prepared blood agar plates and incubated at 37° C. for 24 hours to confirm the hemolysis.

piglets = test: Immunity of piglets born from fed sows (IgA ELISA); type: in vivo; details: 4 days after given colostrum, vs control
Procedure: In order to confirm the effect of the composition including the Lactobacillus plantarum CJLP475 strain and the Lactobacillus plantarum CJLP243 strain on the immunity of piglets born from the sows fed with the composition, an experiment was carried out using sows as in Example 9. Further, blood was collected from the piglets born from the sows 4 days after given colostrum to carry out an immunological analysis using an IgA ELISA kit.

| Substance | total IgA content in the serum of sows (sows) | total IgG content in the serum of sows (sows) | resistance to antibiotics [1] | inhibitory effect against PED virus infection (microscopy, crystal violet) [2] | Bile-Resistance Assessment, viable cell count 0 hr [3] | Bile-Resistance Assessment, viable cell count 24 hrs [3] | Inhibitory Effect against PED virus infection, mLN, KPEDV9 (PED virus KPEDV9) | Inhibitory Effect against PED virus infection, Spin, KPEDV9 (PED virus KPEDV9) | Inhibitory Effect against PED virus infection, mLN, SM98 (PED virus SM98) | Inhibitory Effect against PED virus infection, Spin, SM98 (PED virus SM98) | Acid-Resistance Assessment, viable cell count 0 hr [4] | Acid-Resistance Assessment, viable cell count 3 hrs [4] | hemolysis [5] | further results |
| --- | --- | --- | --- | --- | --- | --- | --- | --- | --- | --- | --- | --- | --- | --- |
| Lactobacillus plantarum CJLP243 | higher than those in the control group | higher than those in the control group | not resistant | the virus infection was suppressed | 3.2 × 10^7 CFU/mL | 7.3 × 10^8 CFU/mL | ++ | ++ | + | ++ | 4.5 × 10^7 CFU/mL | 4.4 × 10^7 CFU/mL | did not show hemolysis | – |
| Lactobacillus plantarum CJLP475 | higher than those in the control group | higher than those in the control group | not resistant | the virus infection was suppressed | 1.3 × 10^8 CFU/mL | 1.1 × 10^7 CFU/mL | ++ | ++ | ++ | ++ | 1.1 × 10^6 CFU/mL | 1.1 × 10^7 CFU/mL | did not show hemolysis | total IgA antibody titer in the colostrum (sows; sow colostrum during delivery): higher; Radius of Growth Inhibition Area Centered Around Antibiotics ([1]; Amp10 (Ampicillin) disc): 7.5 mm; Radius of Growth Inhibition Area Centered Around Antibiotics ([1]; C30 (Clindamycin) disc): 7 mm; Radius of Growth Inhibition Area Centered Around Antibiotics ([1]; CN120 (Gentamicin) disc): 5 mm; Radius of Growth Inhibition Area Centered Around Antibiotics ([1]; DA2 (Streptomycin) disc): 4.5 mm; Radius of Growth Inhibition Area Centered Around Antibiotics ([1]; E15 (Erythromycin) disc): 12 mm; Radius of Growth Inhibition Area Centered Around Antibiotics ([1]; K30 (Kanamycin) disc): 1.5 mm; Radius of Growth Inhibition Area Centered Around Antibiotics ([1]; S10 (Chloramphenicol) disc): 3.5 mm; Radius of Growth Inhibition Area Centered Around Antibiotics ([1]; SAM20 (Ampicillin/Sulbactam) disc): 7 mm; total IgA content in the piglet serum (piglets): higher |
